Reference: paper PMC9544171, “Glucose‐dependent insulinotropic polypeptide receptor antagonist treatment causes a reduction in weight gain in ovariectomised high fat diet‐fed mice” (British Journal of Pharmacology, 2022)
Where a SMILES comes first, the peptide text is derived from it. The star is where a group is joined. C16 diacid = O=C(O)CCCCCCCCCCCCCCC(=O)*

Molecular target: T1, human GIP receptor (Homo sapiens, UniProt P48546)
T1 construct: host or cells: COS-7
T1 sequence (P48546 22-466): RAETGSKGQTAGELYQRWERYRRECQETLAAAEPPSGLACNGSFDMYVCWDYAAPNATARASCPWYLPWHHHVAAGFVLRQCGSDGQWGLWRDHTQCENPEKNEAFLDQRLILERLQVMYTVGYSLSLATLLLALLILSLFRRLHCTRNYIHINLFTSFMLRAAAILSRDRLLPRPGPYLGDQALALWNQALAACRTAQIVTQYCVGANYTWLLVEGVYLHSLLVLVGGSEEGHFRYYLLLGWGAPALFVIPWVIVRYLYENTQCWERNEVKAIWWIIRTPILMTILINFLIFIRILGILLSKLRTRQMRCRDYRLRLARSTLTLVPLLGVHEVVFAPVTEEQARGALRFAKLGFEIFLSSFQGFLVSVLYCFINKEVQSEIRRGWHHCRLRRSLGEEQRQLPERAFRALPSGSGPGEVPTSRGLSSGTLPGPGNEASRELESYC
Test: cAMP accumulation, antagonism of human GIP(1‐42) in transfected COS‐7 cells
Assay type: cell-based
Details: COS‐7 transiently transfected with human GIPR; 10 min preincubation with antagonist, then human GIP(1‐42) at 50%–80% of Emax for 20 min; HitHunter cAMP; Hill slope −1.0; n = 5 independent experiments; read-out: IC50, inhibition of hGIP‐induced cAMP accumulation, human GIPR
Procedure: COS‐7 cells were cultured at 10% CO2 and 37°C in Dulbecco's Modified Eagle Medium 1885 supplemented with 10% foetal bovine serum, 2‐mM glutamine, 180‐units ml^−1 penicillin and […] streptomycin. Transient transfection of the cells with either human or mouse GIP receptor was performed using the calcium phosphate precipitation method as previously described (van der Velden et al., [2021]). A second set of cells was transiently transfected with either mouse GLP‐1 or GLP‐2 receptor. Following the day after transfection, the cells were seeded in white 96‐well plates with a density of 35.000 cells per well. The next day the assay was initiated by washing the cells with HEPES buffered saline (HBS) followed by an incubation step with HBS and 1‐mM 3‐isobutyl‐1‐methylxanthine for 30 min at 37°C. For agonist studies, the ligands were then added and incubated for an additional 30 min at 37°C. […] Luminescence was measured by PerkinElmer™ Envision 2014 Multilabel Reader. […]
Results are presented as mean ± SE. Data were analysed with one‐way and two‐way analysis of variance (ANOVA) with Tukey's or Sidak multiple comparisons test and Student's unpaired t tests where appropriate. […] For the in vitro data IC50 values were determined by nonlinear regression using GraphPad Prism 9 (San Diego, California, USA). […]

## CC[C@H](C)[C@H](NC(=O)[C@H](CO)NC(=O)[C@H](Cc1ccc(O)cc1)NC(=O)[C@H](CC(=O)O)NC(=O)[C@H](CO)NC(=O)[C@@H](NC(=O)[C@H](Cc1ccccc1)NC(=O)[C@@H](NC(=O)CNC(=O)[C@@H](N)CCC(=O)O)[C@@H](C)O)[C@@H](C)CC)C(=O)N[C@@H](C)C(=O)N[C@@H](CCSC)C(=O)N[C@@H](CC(=O)O)C(=O)N[C@@H](CCCCN)C(=O)N[C@H](C(=O)N[C@@H](CCCCNC(=O)CCCCCCCCCCCCCCC(=O)O)C(=O)N[C@@H](CCC(N)=O)C(=O)N[C@@H](CCC(N)=O)C(=O)N[C@@H](CC(=O)O)C(=O)N[C@@H](Cc1ccccc1)C(=O)N[C@H](C(=O)N[C@@H](CC(N)=O)C(=O)N[C@@H](Cc1c[nH]c2ccccc12)C(=O)N[C@@H](CC(C)C)C(=O)N[C@@H](CC(C)C)C(=O)N[C@@H](C)C(=O)N[C@@H](CCC(N)=O)C(=O)N[C@@H](CCCCN)C(=O)NCC(=O)N[C@@H](CCCCN)C(=O)N[C@@H](CCCCN)C(=O)N[C@@H](CC(N)=O)C(=O)N[C@@H](CC(=O)O)C(=O)N[C@@H](Cc1c[nH]c2ccccc12)C(=O)N[C@@H](CCCCN)C(=O)N[C@@H](Cc1c[nH]cn1)C(=O)N[C@@H](CC(N)=O)C(=O)O)C(C)C)[C@@H](C)CC [mGIPAnt‐1] (H-EGTFISDYSIAMDKIK(C16 diacid)QQDFVNWLLAQKGKKNDWKHN-OH)
  IC50: 11 nM
